Patent EP2468279A1, “Prokineticin 1 receptor agonists and their uses” (Université de Strasbourg, priority 2010, dated 2012)

Tests used:
Assay type in all cases: cell-based
endothelial cells (H5V) = assay: Induction of in vitro angiogenesis: tube formation on Growth Factor Reduced Matrigel; settings: serum free medium, 24h at 37°C, number of branching points, Figures 3 and 4
Protocol: Coronary endothelial cells (H5V cells) were maintained in DMEM supplemented with 10% heat inactivated Fetal Calf Serum (FCS), glutamine (1mM) under 5% CO2 at 37°C.
In order to evaluate the potential angiogenic activity of the PKR1 agonists, the test of Growth Factor Reduced Matrigel (GFR Matrigel) 24 well plate was performed. Matrigel leads to the differentiation of many cell types and induces the formation and organization of endothelial cells into capillary tubules. Twenty-four-well culture plates were coated with Matrigel and endothelial cells (H5V) were trypsin-harvested and seeded onto the coated plates at 10^5 cells per well in the serum free assay medium with PKR1 agonists, IS1 and prokineticin-2, and incubated at 37°C for 24h. Tube formation as two dimensional branched structures were observed using an inverted phase contrast microscope (Zeiss), and the number of branching points were quantified in per well from each sample. Each experiment was repeated at least three times. Images were captured at a magnification of X10 with a digital microscope camera system (Urayama K et al., 2007).

PKR1 [1] = biological target: T1, PKR1 (Homo sapiens, UniProt Q8TCW9); assay: Activation of PKR1 signalling pathway: intracellular calcium measured with Fluo 4-AM in CHO-K1 cells infected with adenovirus carrying PKR1 cDNA; settings: CHO-K1 cells expressing PKR1, Fluo 4-AM fluorescence; Figure 5
T1 construct: expressed in transfected cells; host or cells: CHO-K1 cells, transfected with Lipofectamine2000
Protocol: CHO-K1 (Chinese Hamster Ovary) cells were infected with a adenovirus carrying PKR1 cDNA. Cells were then stimulated, 48h after infection, with or without IS1 agonists, at 37°C. Calcium imaging was conducted essentially as previously described (Horinouchi et al., 2007) In brief, Intracellular free calcium [Ca^2+]i was measured with the fluorescent Ca^2+ indicator dye Fluo 4-AM, the membrane-permeant acetoxymethyl ester form of Fluo 4 (Invitrogen). Changes in [Ca^2+]i were determined from variations in the fluorescence intensity of Fluo 4-AM. Briefly, trypsinized CHO-K1-PKR1 cells were seeded onto glass bottom culture dishes (MatTek, MA, USA) for 24 h. […] The fluorescence in the cells was excited at a wavelength of 488 nm and a series of images (total exposure time: 300 s) were acquired at 0.5s intervals at emission wavelength 518 nm. Data are presented as the fluorescence intensity of 3 randomly chosen cells within a randomly selected 40 × field. To evaluate the effect of IS1 compound on [Ca^2+]i in CHO-K-PKR1, the maximum change in fluorescence intensity upon addition of IS1 was measured and normalized to the baseline fluorescence obtained before IS 1 addition.

PKR1 [2] = biological target: T1, PKR1; assay: PKR1 internalization in CHO-K1 cells transfected with GFP-PKR1, by confocal microscopy; settings: Figure 6
Protocol: The capacity of agonist compounds to induce internalization of PKR1 was assessed. Therefore, CHO-K1 cells transfected with a plasmid encoding GFP-PKR1 (Green Fluorescent Protein-PKR1), in the presence of Lipofectamine2000 (Invitrogen), were used. Cells were stimulated, 48h after transfection, with or without agonist compound, at 37°C. GFP is a fluorescent protein fusion (26.9 kDa) which has a major excitation peak at a wavelength of 396 nm and a minor one at 472 nm. Its emission peak is at 504 nm which is in the lower green portion of the visible spectrum. Fluorescence allowed tracking the localization of PKR1 after stimulation by the agonist (membrane or subcellular). Cells were seeded in glass-bottom coated with polyL-lysine and receptor studies were performed in the presence of various PKR1-ligands. Samples were observed under a Leica confocal microscope (SP2 AOBS MP) with objective 63× at 37°C. Images were automatically recorded during 20 min, with increasing time intervals to avoid bleaching effects because of repetitive scanning. Reconstituted videos contained 42 images and lasted 2 second.

T1 sequence (Q8TCW9 whole entry): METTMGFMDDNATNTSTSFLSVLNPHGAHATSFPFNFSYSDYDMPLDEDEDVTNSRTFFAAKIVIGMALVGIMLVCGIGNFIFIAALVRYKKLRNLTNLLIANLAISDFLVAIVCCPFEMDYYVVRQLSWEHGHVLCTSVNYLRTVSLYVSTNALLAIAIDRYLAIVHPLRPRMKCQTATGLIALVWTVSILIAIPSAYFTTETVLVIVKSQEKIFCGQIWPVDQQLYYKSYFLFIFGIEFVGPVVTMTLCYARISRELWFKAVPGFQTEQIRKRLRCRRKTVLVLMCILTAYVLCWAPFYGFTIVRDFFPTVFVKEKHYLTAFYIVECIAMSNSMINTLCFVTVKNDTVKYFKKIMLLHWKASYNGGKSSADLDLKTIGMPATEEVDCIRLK

PKR1 internalization (PKR1 [2]; CHO cells GFP-PKR1, 48h after transfection, 37°C): induces its internalization | specificity of interaction with PKR1 (PKR1 [2]; CHO cells GFP-PKR1): specifically interacts with PKR1
SMILES: O=C(NCc1cccnc1)C(=Cc1ccco1)NC(=O)c1ccccc1 [IS1]
in vitro angiogenesis (tube-like formation of the endothelial cells on Matrigel) (endothelial cells (H5V)): Induction of in vitro angiogenesis | activation of the PKR1 signalling pathway (intracellular calcium release) (PKR1 [1]): able to activate the PKR1 signalling pathway
